Values after ≈ are worked out from the molar mass of the structure shown.
Key:
Type in all cases: cell-based
[1] = tested on: E. coli ATCC25922; experiment: Bacterial growth minimal inhibitory concentration, E. coli ATCC25922; details: quinolone-sensitive strain, cation-adjusted Mueller-Hinton Broth, microdilution; for MIC: Escherichia coli, ATCC25922
Procedure: (§1) Minimal Inhibitory Concentrations (MICs; mg/L) were determined in cation-adjusted Mueller-Hinton Broth by a microdilution method following the description given in “Methods for Dilution Antimicrobial Susceptibility Tests for Bacteria that Grow Aerobically”, Approved standard, 7th ed., Clinical and Laboratory Standards Institute (CLSI) Document M7-A7, Wayne, Pa., USA (2006).
(§2) All Example compounds were tested against several Gram-positive and Gram-negative bacteria. […] K. pneumoniae A-651 is a multiply-resistant (in particular quinolone-resistant) strain, while E. coli ATCC25922 and P. aeruginosa ATCC27853 are quinolone-sensitive strains.

[2] = tested on: P. aeruginosa ATCC27853; experiment: Bacterial growth minimal inhibitory concentration, P. aeruginosa ATCC27853; details: quinolone-sensitive strain, cation-adjusted Mueller-Hinton Broth, microdilution; for MIC: Pseudomonas aeruginosa, ATCC27853
Procedure: as §1, §2

[3] = tested on: K. pneumoniae A-651; experiment: Bacterial growth minimal inhibitory concentration, K. pneumoniae A-651; details: cation-adjusted Mueller-Hinton Broth, microdilution; for MIC: Klebsiella pneumoniae, A651, multiply-resistant (in particular quinolone-resistant) strain; for MIC for K. Pneumoniae A-651: multiply-resistant (in particular quinolone-resistant) strain
Procedure: as §1, §2

[4] = tested on: wild-type E. coli A-1261; experiment: Bacterial growth minimal inhibitory concentration of prodrugs, wild-type E. coli A-1261, with or without alkaline phosphatase or esterase; details: for MIC for E. coli A-1261 In the absence of alkaline phosphatase or esterase: no alkaline phosphatase or esterase
Procedure: as §1
The compounds of Examples 6 and 21 were tested against wild-type E. coli A-1261 in the absence of alkaline phosphatase or esterase, in the presence of an alkaline phosphatase and in the presence of an esterase. The corresponding antibacterial test results are given in Table 2 hereafter (MICs in mg/L).

Row | Molecule | MIC [1] | MIC [2] | MIC [3] | further results
1 | C[C@@](CCc1nc2ccc(C#CC#CCOC(=O)N3CCC(O)CC3)cc2s1)(C(=O)NO)S(C)(=O)=O [Example 2, (2R)-5-(2-(4-(hydroxyamino)-3-methyl-3-(methylsulfonyl)-4-oxobutyl)benzo[d]thiazol-6-yl)penta-2,4-diyn-1-yl 4-hydroxypiperidine-1-carboxylate] | – | – | – | MIC for E. coli ATCC25922 [1]: 0.25 µg/mL; MIC for P. aeruginosa ATCC27853 [2]: 1 µg/mL; MIC for K. Pneumoniae A-651 [3]: 0.5 µg/mL
2 | C[C@@](CCc1nc2ccc(C#CC#CCOC(=O)N3CC(O)C3)cc2s1)(C(=O)NO)S(C)(=O)=O [Example 3, (2R)-5-(2-(4-(hydroxyamino)-3-methyl-3-(methylsulfonyl)-4-oxobutyl)benzo[d]thiazol-6-yl)penta-2,4-diyn-1-yl 3-hydroxyazetidine-1-carboxylate] | – | – | – | MIC for E. coli ATCC25922 [1]: 0.5 µg/mL; MIC for P. aeruginosa ATCC27853 [2]: 4 µg/mL; MIC for K. Pneumoniae A-651 [3]: 1 µg/mL
3 | C[C@@](CCc1nc2ccc(C#CC#CC3CN(CCO)C3)cc2s1)(C(=O)NO)S(C)(=O)=O [Example 5, (2R)—N-hydroxy-4-(6-((1-(2-hydroxyethyl)azetidin-3-yl)buta-1,3-diyn-1-yl)benzo[d]thiazol-2-yl)-2-methyl-2-(methylsulfonyl)butanamide] | 1 µg/mL (≈ 2.1 µM) | 1 µg/mL (≈ 2.1 µM) | 0.5 µg/mL (≈ 1.05 µM) | –
4 | C[C@@](CCc1nc2ccc(C#CC#CC3CN(CCOP(=O)(O)O)C3)cc2s1)(C(=O)NO)S(C)(=O)=O [Example 6, (R)-2-(3-((2-(4-(hydroxyamino)-3-methyl-3-(methylsulfonyl)-4-oxobutyl)benzo[d]thiazol-6-yl)buta-1,3-diyn-1-yl)azetidin-1-yl)ethyl dihydrogen phosphate] | – | – | – | MIC for E. coli A-1261 In the presence of an alkaline phosphatase (2 i.U./mL) [4]: 0.5 µg/mL; MIC for E. coli A-1261 In the presence of an esterase (10 i.U./mL) [4]: >16 µg/mL; MIC for E. coli A-1261 In the absence of alkaline phosphatase or esterase [4]: >16 µg/mL
5 | CN1CCC(F)(C#CC#Cc2ccc3nc(CC[C@](C)(C(=O)NO)S(C)(=O)=O)sc3c2)CC1 [Example 15, (2R)-4-(6-((4-fluoro-1-methylpiperidin-4-yl)buta-1,3-diyn-1-yl)benzo[d]thiazol-2-yl)-N-hydroxy-2-methyl-2-(methylsulfonyl)butanamide] | 0.25 µg/mL (≈ 0.509 µM) | 1 µg/mL (≈ 2.03 µM) | 0.5 µg/mL (≈ 1.02 µM) | –
6 | CN1C[C@@H](C#CC#Cc2ccc3nc(CC[C@](C)(C(=O)NO)S(C)(=O)=O)sc3c2)[C@@H]1CO [Example 17, (2R)—N-hydroxy-4-(6-(((2R,3R)-2-(hydroxymethyl)-1-methylazetidin-3-yl)buta-1,3-diyn-1-yl)benzo[d]thiazol-2-yl)-2-methyl-2-(methylsulfonyl)butanamide] | 0.5 µg/mL (≈ 1.05 µM) | 1 µg/mL (≈ 2.1 µM) | 1 µg/mL (≈ 2.1 µM) | –
7 | CN1C[C@@H](C#CC#Cc2ccc3nc(CC[C@](C)(C(=O)NO)S(C)(=O)=O)sc3c2)[C@@H]1CO [Example 19, (2R)—N-hydroxy-4-(6-(((2R,3R)-2-(hydroxymethyl)-1-methylazetidin-3-yl)buta-1,3-diyn-1-yl)benzo[d]thiazol-2-yl)-2-methyl-2-(methylsulfonyl)butanamide] | – | – | – | MIC for E. coli ATCC25922 [1]: 0.5 µg/mL; MIC for P. aeruginosa ATCC27853 [2]: 1 µg/mL; MIC for K. Pneumoniae A-651 [3]: 2 µg/mL
8 | CN1C[C@@H](C#CC#Cc2ccc3nc(CC[C@](C)(C(=O)NO)S(C)(=O)=O)sc3c2)C[C@@H]1CO [Example 20, (2R)—N-hydroxy-4-(6-(((3R,5R)-5-(hydroxymethyl)-1-methylpyrrolidin-3-yl)buta-1,3-diyn-1-yl)benzo[d]thiazol-2-yl)-2-methyl-2-(methylsulfonyl)butanamide] | 0.5 µg/mL (≈ 1.02 µM) | 1 µg/mL (≈ 2.04 µM) | 1 µg/mL (≈ 2.04 µM) | –
9 | (2R)-2-(3-((4-(5-((1-(3-hydroxypropyl)azetidin-3-yl)buta-1,3-diyn-1-yl)benzo[d]thiazol-2-yl)-2-methyl-2-(methylsulfonyl)butanamido)oxy)-3-oxopropyl)phenyl dihydrogen phosphate [Example 21] | – | – | – | MIC for E. coli A-1261 In the presence of an alkaline phosphatase (2 i.U./mL) [4]: 0.5 µg/mL; MIC for E. coli A-1261 In the presence of an esterase (10 i.U./mL) [4]: 8 µg/mL; MIC for E. coli A-1261 In the absence of alkaline phosphatase or esterase [4]: 0.5 µg/mL

Further lines, with some results ahead:

Row | MIC [1] | MIC [2] | MIC [3] | Molecule | further results
10 | 0.063 µg/mL | 1 µg/mL | 0.25 µg/mL | CN1CCC(F)(C#CC#Cc2ccc3nc(CC[C@](C)(C(=O)NO)S(C)(=O)=O)sc3c2)C1 (mixture of isomers) [Example 14, (2R)-4-(6-(((3RS)-3-fluoro-1-methylpyrrolidin-3-yl)buta-1,3-diyn-1-yl)benzo[d]thiazol-2-yl)-N-hydroxy-2-methyl-2-(methylsulfonyl)butanamide] | –
11 | 0.25 µg/mL (≈ 0.513 µM) | 1 µg/mL (≈ 2.05 µM) | 0.25 µg/mL (≈ 0.513 µM) | C[C@@](CCc1nc2ccc(C#CC#CC3CN(C4COC4)C3)cc2s1)(C(=O)NO)S(C)(=O)=O [Example 1, (2R)—N-hydroxy-2-methyl-2-(methylsulfonyl)-4-(6-((1-(oxetan-3-yl)azetidin-3-yl)buta-1,3-diyn-1-yl)benzo[d]thiazol-2-yl)butanamide] | –
12 | 0.25 µg/mL (≈ 0.561 µM) | 1 µg/mL (≈ 2.24 µM) | 0.5 µg/mL (≈ 1.12 µM) | CN1CC(C#CC#Cc2ccc3nc(CC[C@](C)(C(=O)NO)S(C)(=O)=O)sc3c2)C1 [Example 4, (2R)—N-hydroxy-2-methyl-4-(6-((1-methylazetidin-3-yl)buta-1,3-diyn-1-yl)benzo[d]thiazol-2-yl)-2-(methylsulfonyl)butanamide] | –
13 | 0.125 µg/mL (≈ 0.271 µM) | 1 µg/mL (≈ 2.17 µM) | 0.25 µg/mL (≈ 0.543 µM) | C[C@@](CCc1nc2ccc(C#CC#C[C@@H]3CC[C@H]3CO)cc2s1)(C(=O)NO)S(C)(=O)=O [Example 7, (2R)—N-hydroxy-4-(6-(((1R,2R)-2-(hydroxymethyl)cyclobutyl)buta-1,3-diyn-1-yl)benzo[d]thiazol-2-yl)-2-methyl-2-(methylsulfonyl)butanamide] | –
14 | 0.25 µg/mL (≈ 0.561 µM) | 2 µg/mL (≈ 4.49 µM) | 1 µg/mL (≈ 2.24 µM) | CN1CC[C@H]1C#CC#Cc1ccc2nc(CC[C@](C)(C(=O)NO)S(C)(=O)=O)sc2c1 [Example 8, (2R)—N-hydroxy-2-methyl-4-(6-(((2S)-1-methylazetidin-2-yl)buta-1,3-diyn-1-yl)benzo[d]thiazol-2-yl)-2-(methylsulfonyl)butanamide] | –
15 | 0.125 µg/mL (≈ 0.249 µM) | 1 µg/mL (≈ 1.99 µM) | 0.25 µg/mL (≈ 0.498 µM) | C[C@@](CCc1nc2ccc(C#CC#CC3CN(CC4COC4)C3)cc2s1)(C(=O)NO)S(C)(=O)=O [Example 9, (2R)—N-hydroxy-2-methyl-2-(methylsulfonyl)-4-(6-((1-(oxetan-3-ylmethyl)azetidin-3-yl)buta-1,3-diyn-1-yl)benzo[d]thiazol-2-yl)butanamide] | –
16 | 0.25 µg/mL (≈ 0.511 µM) | 1 µg/mL (≈ 2.04 µM) | 0.5 µg/mL (≈ 1.02 µM) | C[C@@](CCc1nc2ccc(C#CC#CC3CN(CCCO)C3)cc2s1)(C(=O)NO)S(C)(=O)=O [Example 10, (2R)—N-hydroxy-4-(6-((1-(3-hydroxypropyl)azetidin-3-yl)buta-1,3-diyn-1-yl)benzo[d]thiazol-2-yl)-2-methyl-2-(methylsulfonyl)butanamide] | –
17 | 0.063 µg/mL (≈ 0.134 µM) | 2 µg/mL (≈ 4.24 µM) | 0.125 µg/mL (≈ 0.265 µM) | C[C@@](CCc1nc2ccc(C#CC#CC3CN(C4CC4)C3)cc2s1)(C(=O)NO)S(C)(=O)=O [Example 11, (2R)-4-(6-((1-cyclopropylazetidin-3-yl)buta-1,3-diyn-1-yl)benzo[d]thiazol-2-yl)-N-hydroxy-2-methyl-2-(methylsulfonyl)butanamide] | –
18 | 0.125 µg/mL (≈ 0.249 µM) | 1 µg/mL (≈ 1.99 µM) | 0.25 µg/mL (≈ 0.498 µM) | C[C@@](CCc1nc2ccc(C#CC#CC3CN(C4CC(O)C4)C3)cc2s1)(C(=O)NO)S(C)(=O)=O (stereo partly drawn) [Example 12, (2R)—N-hydroxy-4-(6-((1-(3-hydroxycyclobutyl)azetidin-3-yl)buta-1,3-diyn-1-yl)benzo[d]thiazol-2-yl)-2-methyl-2-(methylsulfonyl)butanamide] | –
19 | 0.125 µg/mL (≈ 0.262 µM) | 1 µg/mL (≈ 2.09 µM) | 0.25 µg/mL (≈ 0.523 µM) | C[C@@](CCc1nc2ccc(C#CC#CC3CN(CCF)C3)cc2s1)(C(=O)NO)S(C)(=O)=O [Example 13, (2R)-4-(6-((1-(2-fluoroethyl)azetidin-3-yl)buta-1,3-diyn-1-yl)benzo[d]thiazol-2-yl)-N-hydroxy-2-methyl-2-(methylsulfonyl)butanamide] | –
20 | 0.125 µg/mL (≈ 0.272 µM) | 0.5 µg/mL (≈ 1.09 µM) | 0.5 µg/mL (≈ 1.09 µM) | C[C@@H]1[C@@H](C#CC#Cc2ccc3nc(CC[C@](C)(C(=O)NO)S(C)(=O)=O)sc3c2)CN1C [Example 16, (2R)-4-(6-(((2R,3S)-1,2-dimethylazetidin-3-yl)buta-1,3-diyn-1-yl)benzo[d]thiazol-2-yl)-N-hydroxy-2-methyl-2-(methylsulfonyl)butanamide] | –
21 | 0.125 µg/mL (≈ 0.281 µM) | 1 µg/mL (≈ 2.24 µM) | 0.25 µg/mL (≈ 0.561 µM) | CNC1(C#CC#Cc2ccc3nc(CC[C@](C)(C(=O)NO)S(C)(=O)=O)sc3c2)CC1 [Example 18, (2R)—N-hydroxy-2-methyl-4-(6-((1-(methylamino)cyclopropyl)buta-1,3-diyn-1-yl)benzo[d]thiazol-2-yl)-2-(methylsulfonyl)butanamide] | –

Source: patent US20190315731A1, “6-(BUTA-1,3-DIYN-1-YL)BENZO[D]THIAZOLE DERIVATIVES” (Idorsia Pharmaceuticals Ltd., priority 2016, published 2019)
